According to the supplement of paper PMC11208160:

Test: recombinant barcode read abundance after kanamycin selection (control-corrected) (log10(CPM+1)); higher = more efficient recombination; sequences stand for … in AGTGCAGAGAAAATCGGCCAGTTTTCTCTGCCTGCAGTCCGCATGCCGT…ATTTATGCAGCGGACTGCCTTTCTCCCAAAGTGATAAACCGGACAGTATCATGGACCGGTTTTCCCGGTAATCCGTATTTGCAAGGTTGGTTTCACT; site = the 11-nt target
Method in brief: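 Targets were screened in pooled form in E. coli against IS621 bridge RNA target-binding loops. Recombination efficiency is based on barcode counts at recombinant junctions in counts per million, averaged and corrected for the control. Numbers are shown as log10(CPM+1), with duplicate plates on chloramphenicol/ampicillin LB agar (control) or chloramphenicol/ampicillin/kanamycin with 0.1 mM IPTG.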

Sequence | recombinant barcode read abundance (log10)
TTATAAAGATGGGTTCTAACCTGTTGCCTTC [TTATAAACTAG_LTGcore_GA_RTGcore_GA] (site TTATAAACTAG) (LTG core: GA, RTG core: GA) | 0.0936
TTATAAAGGTGGGTTCTAACCTGTTGCCTCC [TTATAAACTAG_LTGcore_GG_RTGcore_GG] (site TTATAAACTAG) (LTG core: GG, RTG core: GG) | 0.154
TTATAAATCTGGGTTCTAACCTGTTGCCTGA [TTATAAACTAG_LTGcore_TC_RTGcore_TC] (site TTATAAACTAG) (LTG core: TC, RTG core: TC) | 0.244
